# Data: ChEMBL document CHEMBL6103629 (J Med Chem, 2025)
# pIC50: −log10 of the molar value. Calls of active or inactive are those of the source. The rule behind the calls is not given here.
# Columns and labels:
# CWR22R [1] = experiment: Antiproliferative activity against human 22Rv1 cells incubated for 120 hrs by Cell-titer Glo luminescent assay; conditions: 22Rv1, 120 h
# [2] = biological target: Serine/threonine-protein kinase ATR (Homo sapiens, UniProt Q13535); experiment: Inhibition of ATR (unknown origin) assessed as reduction in p53 phosphorylation level incubated for 30 mins by TR-FRET assay
# Sequence of Serine/threonine-protein kinase ATR (Q13535 whole entry): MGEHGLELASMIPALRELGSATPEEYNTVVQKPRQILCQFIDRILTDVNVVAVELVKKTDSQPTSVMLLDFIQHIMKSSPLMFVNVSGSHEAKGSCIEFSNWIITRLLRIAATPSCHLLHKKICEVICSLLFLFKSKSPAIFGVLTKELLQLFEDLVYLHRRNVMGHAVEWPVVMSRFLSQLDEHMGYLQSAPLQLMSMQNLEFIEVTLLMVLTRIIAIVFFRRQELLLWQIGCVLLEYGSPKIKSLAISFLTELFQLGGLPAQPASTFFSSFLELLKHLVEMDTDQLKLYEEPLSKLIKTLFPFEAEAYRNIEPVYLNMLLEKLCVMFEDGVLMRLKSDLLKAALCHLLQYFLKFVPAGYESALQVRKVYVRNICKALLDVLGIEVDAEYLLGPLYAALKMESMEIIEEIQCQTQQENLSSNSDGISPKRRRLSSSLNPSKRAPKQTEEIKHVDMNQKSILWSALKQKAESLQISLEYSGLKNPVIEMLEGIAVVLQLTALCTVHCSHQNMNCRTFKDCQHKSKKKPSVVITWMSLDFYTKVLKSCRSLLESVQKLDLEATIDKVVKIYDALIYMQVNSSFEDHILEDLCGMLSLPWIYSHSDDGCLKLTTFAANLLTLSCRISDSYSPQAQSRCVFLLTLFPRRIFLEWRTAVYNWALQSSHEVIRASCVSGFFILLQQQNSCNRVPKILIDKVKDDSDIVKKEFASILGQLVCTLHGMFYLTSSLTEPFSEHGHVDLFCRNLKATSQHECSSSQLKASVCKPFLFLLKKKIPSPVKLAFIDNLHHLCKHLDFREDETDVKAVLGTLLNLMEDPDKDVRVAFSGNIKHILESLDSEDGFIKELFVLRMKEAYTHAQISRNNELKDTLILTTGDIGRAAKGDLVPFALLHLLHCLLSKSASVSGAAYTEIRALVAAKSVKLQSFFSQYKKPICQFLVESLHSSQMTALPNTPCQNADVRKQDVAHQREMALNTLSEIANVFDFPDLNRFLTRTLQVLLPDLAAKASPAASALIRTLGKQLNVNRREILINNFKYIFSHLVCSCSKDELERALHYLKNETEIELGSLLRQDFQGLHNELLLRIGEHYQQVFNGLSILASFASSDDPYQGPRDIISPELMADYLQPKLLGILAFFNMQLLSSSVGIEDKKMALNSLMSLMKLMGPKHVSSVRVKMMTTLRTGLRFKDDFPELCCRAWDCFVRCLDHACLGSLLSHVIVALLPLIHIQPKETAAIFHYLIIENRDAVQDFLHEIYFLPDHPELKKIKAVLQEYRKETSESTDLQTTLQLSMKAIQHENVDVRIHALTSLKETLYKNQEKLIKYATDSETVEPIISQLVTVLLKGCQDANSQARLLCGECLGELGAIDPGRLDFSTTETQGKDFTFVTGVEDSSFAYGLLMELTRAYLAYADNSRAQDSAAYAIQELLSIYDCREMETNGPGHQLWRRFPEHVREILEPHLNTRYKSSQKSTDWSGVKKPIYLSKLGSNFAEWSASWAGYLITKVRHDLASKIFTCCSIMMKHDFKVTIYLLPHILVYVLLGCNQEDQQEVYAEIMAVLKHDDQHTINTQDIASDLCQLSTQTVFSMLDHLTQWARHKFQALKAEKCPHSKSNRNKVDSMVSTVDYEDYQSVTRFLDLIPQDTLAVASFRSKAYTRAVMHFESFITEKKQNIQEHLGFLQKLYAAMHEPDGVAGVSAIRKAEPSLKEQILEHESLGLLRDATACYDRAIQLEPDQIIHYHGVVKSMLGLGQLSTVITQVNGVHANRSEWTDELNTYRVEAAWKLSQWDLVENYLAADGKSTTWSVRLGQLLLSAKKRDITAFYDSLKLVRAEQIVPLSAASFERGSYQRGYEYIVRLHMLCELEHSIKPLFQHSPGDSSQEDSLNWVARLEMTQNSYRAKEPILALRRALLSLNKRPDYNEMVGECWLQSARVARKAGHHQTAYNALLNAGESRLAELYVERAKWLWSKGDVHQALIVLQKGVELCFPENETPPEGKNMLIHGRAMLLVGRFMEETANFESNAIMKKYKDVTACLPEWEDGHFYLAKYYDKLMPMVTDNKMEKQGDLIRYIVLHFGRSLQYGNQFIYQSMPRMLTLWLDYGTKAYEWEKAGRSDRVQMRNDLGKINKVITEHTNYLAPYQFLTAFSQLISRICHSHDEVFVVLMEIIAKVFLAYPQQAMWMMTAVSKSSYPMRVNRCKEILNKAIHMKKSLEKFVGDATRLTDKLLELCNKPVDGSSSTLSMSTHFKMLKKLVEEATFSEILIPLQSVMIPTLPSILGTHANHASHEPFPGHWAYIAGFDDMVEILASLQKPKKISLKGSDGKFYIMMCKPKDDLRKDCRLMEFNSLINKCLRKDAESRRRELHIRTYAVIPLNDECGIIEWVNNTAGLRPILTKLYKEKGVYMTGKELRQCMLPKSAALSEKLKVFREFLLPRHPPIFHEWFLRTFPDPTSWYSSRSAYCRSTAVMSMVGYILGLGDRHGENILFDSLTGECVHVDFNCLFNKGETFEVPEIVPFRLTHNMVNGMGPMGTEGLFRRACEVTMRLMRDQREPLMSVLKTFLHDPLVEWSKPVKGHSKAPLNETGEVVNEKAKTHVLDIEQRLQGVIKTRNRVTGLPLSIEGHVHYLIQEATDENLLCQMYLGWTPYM
# LoVo [3] = experiment: Antiproliferative activity against human LoVo cells assessed as reduction in cell viability incubated for 120 hrs by Cell-titer Glo luminescent assay
# U2OS = experiment: Antiproliferative activity against human U2OS cells assessed as reduction in cell viability incubated for 120 hrs by Cell-titer Glo luminescent assay; format: functional, cell-based
# T-24 = experiment: Antiproliferative activity against human T24 cells assessed as reduction in cell viability incubated for 120 hrs by Cell-titer Glo luminescent assay; format: functional, cell-based
# NCI-H69 = experiment: Antiproliferative activity against human NCI-H69 cells assessed as reduction in cell viability incubated for 120 hrs by Cell-titer Glo luminescent assay; format: functional, cell-based
# JeKo-1 [4] = experiment: Antiproliferative activity against human JeKo-1 cells assessed as reduction in cell viability incubated for 120 hrs by Cell-titer Glo luminescent assay; format: functional, cell-based
# [5] = biological target: Serine/threonine-protein kinase mTOR (Homo sapiens, UniProt P42345); experiment: Inhibition of mTOR (unknown origin) at 10 uM preincubated for 15 mins and measured after 60 mins by Z-LYTE screening relative to control; conditions: time 75.0 min
# LoVo [6] = experiment: Inhibition of DNA damage repair in human LoVo cells assessed as decrease in Chk1 expression level incubated for 24 hrs by Western blot analysis; format: functional, cell-based; conditions: dose 0.3-1 µM
# LoVo [7] = experiment: Induction of cell cycle arrest in human LoVo cells assessed as accumulation of cells at G2 phase incubated for 24 hrs by PI staining based flow cytometric analysis; format: functional; conditions: dose 1-3 µM
# [8] = biological target: Proto-oncogene tyrosine-protein kinase ROS (Homo sapiens) (UniProt P08922); experiment: Inhibition of ROS1 (unknown origin) at 10 uM preincubated for 15 mins and measured after 60 mins by Z-LYTE screening relative to control; conditions: time 75.0 min
# LoVo [9] = experiment: Inhibition of DNA damage repair in human LoVo cells assessed as decrease in RAD51 expression level incubated for 24 hrs by Western blot analysis; format: functional, cell-based; conditions: dose 0.3-1 µM
# MCF7 = experiment: Antiproliferative activity against human MCF7 cells assessed as reduction in cell viability incubated for 120 hrs by Cell-titer Glo luminescent assay; format: functional, cell-based
# HepG2 = experiment: Antiproliferative activity against human HepG2 cells assessed as reduction in cell viability incubated for 120 hrs by Cell-titer Glo luminescent assay; format: functional, cell-based
# Huh-7 = experiment: Antiproliferative activity against human Huh-7 cells assessed as reduction in cell viability incubated for 120 hrs by Cell-titer Glo luminescent assay; format: functional, cell-based
# [10] = biological target: Kappa-type opioid receptor (Homo sapiens) (UniProt P41145); experiment: Inhibition of human kappa opioid at 10 uM; conditions: time 75.0 min
# Sequence of Kappa-type opioid receptor (Homo sapiens) (P41145 whole entry): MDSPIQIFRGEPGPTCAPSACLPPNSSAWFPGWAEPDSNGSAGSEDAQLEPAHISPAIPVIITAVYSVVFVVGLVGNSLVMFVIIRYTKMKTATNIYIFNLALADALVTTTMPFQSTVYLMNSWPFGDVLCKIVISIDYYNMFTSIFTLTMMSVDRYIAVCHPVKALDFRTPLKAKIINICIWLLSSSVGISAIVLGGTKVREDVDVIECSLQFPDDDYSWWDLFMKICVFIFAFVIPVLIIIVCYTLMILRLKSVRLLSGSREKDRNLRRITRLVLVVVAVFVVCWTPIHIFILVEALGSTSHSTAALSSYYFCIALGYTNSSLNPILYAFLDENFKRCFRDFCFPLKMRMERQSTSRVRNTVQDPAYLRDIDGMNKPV
# OVCAR-8 = experiment: Antiproliferative activity against human OVCAR-8 cells assessed as reduction in cell viability incubated for 120 hrs by Cell-titer Glo luminescent assay; format: functional, cell-based
# Homo sapiens = organism: Homo sapiens; experiment: Inhibition of DNA-PK (unknown origin) at 10 uM preincubated for 15 mins and measured after 60 mins by Z-LYTE screening relative to control; conditions: time 75.0 min
# SK-OV-3 = experiment: Antiproliferative activity against human SK-OV-3 cells assessed as reduction in cell viability incubated for 120 hrs by Cell-titer Glo luminescent assay; format: functional, cell-based
# HCT-116 = experiment: Antiproliferative activity against human HCT-116 cells assessed as reduction in cell viability incubated for 120 hrs by Cell-titer Glo luminescent assay; format: functional, cell-based
# MDA-MB-436 = experiment: Antiproliferative activity against human MDA-MB-436 cells assessed as reduction in cell viability incubated for 120 hrs by Cell-titer Glo luminescent assay; format: functional, cell-based
# KATO III = experiment: Antiproliferative activity against human KATO III stomach cancer cell line assessed as reduction in cell viability incubated for 120 hrs by Cell-titer Glo luminescent assay; format: functional, cell-based
# A549 = experiment: Antiproliferative activity against human A549 cells assessed as reduction in cell viability incubated for 120 hrs by Cell-titer Glo luminescent assay; format: functional, cell-based
# MDA-MB-231 = experiment: Antiproliferative activity against human MDA-MB-231 cells assessed as reduction in cell viability incubated for 120 hrs by Cell-titer Glo luminescent assay; format: functional, cell-based
# CWR22R [11] = experiment: Antiproliferative activity against human 22Rv1 cells incubated for 120 hrs by Cell-titer Glo luminescent assay
# LoVo [12] = experiment: Inhibition of DNA damage repair in human LoVo cells assessed as upregulation of p-Histone H2A.X protein level at 0.3 to 1 uM incubated for 24 hrs by Western blot analysis; format: functional, cell-based; conditions: dose 0.3-1 µM
# NCI-H1703 = experiment: Antiproliferative activity against human NCI-H1703 cells assessed as reduction in cell viability incubated for 120 hrs by Cell-titer Glo luminescent assay; format: functional, cell-based
# [13] = biological target: Phosphatidylinositol 4-phosphate 3-kinase C2 domain-containing subunit beta (Homo sapiens) (UniProt O00750); experiment: Inhibition of PIK3C2B (unknown origin) at 10 uM preincubated for 15 mins and measured after 60 mins by Z-LYTE screening relative to control; conditions: time 75.0 min
# Sequence of Phosphatidylinositol 4-phosphate 3-kinase C2 domain-containing subunit beta (Homo sapiens) (O00750 whole entry, the tested form may be a part): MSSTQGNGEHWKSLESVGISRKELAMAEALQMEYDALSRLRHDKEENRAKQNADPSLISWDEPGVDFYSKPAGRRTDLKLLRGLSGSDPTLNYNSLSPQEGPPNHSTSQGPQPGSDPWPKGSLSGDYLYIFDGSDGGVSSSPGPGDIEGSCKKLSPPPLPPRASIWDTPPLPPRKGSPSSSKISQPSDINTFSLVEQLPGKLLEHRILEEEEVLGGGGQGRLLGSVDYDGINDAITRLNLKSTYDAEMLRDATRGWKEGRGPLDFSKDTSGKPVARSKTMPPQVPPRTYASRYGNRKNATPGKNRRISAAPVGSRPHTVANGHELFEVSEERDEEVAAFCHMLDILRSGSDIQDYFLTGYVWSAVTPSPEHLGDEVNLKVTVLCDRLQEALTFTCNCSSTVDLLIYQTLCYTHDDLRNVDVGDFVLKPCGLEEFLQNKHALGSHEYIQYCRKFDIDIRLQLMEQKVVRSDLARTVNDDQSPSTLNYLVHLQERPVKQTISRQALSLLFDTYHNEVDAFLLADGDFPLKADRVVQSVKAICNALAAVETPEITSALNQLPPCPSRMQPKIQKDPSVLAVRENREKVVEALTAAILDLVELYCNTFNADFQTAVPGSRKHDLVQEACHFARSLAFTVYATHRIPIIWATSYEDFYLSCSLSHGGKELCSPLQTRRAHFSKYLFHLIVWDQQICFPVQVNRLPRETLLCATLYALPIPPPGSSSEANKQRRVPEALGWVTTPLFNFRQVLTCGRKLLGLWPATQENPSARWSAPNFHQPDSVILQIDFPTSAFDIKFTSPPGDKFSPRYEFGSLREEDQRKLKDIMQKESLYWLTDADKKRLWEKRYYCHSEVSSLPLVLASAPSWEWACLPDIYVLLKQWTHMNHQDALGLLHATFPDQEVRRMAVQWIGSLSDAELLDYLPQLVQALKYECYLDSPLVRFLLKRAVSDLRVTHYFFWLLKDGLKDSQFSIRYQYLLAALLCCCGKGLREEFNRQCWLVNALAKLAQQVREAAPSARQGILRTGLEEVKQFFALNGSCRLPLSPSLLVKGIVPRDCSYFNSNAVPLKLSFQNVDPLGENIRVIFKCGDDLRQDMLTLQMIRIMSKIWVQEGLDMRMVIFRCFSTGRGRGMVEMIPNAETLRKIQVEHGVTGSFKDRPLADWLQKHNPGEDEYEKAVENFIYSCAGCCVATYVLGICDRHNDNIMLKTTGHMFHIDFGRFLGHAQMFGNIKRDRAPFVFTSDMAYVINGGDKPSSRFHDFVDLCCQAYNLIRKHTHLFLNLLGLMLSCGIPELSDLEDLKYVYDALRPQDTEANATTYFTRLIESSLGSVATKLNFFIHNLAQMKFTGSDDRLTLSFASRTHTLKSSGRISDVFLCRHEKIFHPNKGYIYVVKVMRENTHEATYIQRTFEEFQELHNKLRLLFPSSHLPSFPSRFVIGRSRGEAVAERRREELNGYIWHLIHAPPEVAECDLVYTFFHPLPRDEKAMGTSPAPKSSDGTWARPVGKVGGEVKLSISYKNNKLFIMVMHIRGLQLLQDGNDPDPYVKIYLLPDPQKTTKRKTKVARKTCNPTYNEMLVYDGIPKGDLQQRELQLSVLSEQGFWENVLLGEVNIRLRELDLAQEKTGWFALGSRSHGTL
# A2780 = experiment: Antiproliferative activity against human A2780 cells assessed as reduction in cell viability incubated for 120 hrs by Cell-titer Glo luminescent assay; format: functional, cell-based
# LNCaP = experiment: Antiproliferative activity against human LNCaP cells assessed as reduction in cell viability incubated for 120 hrs by Cell-titer Glo luminescent assay; format: functional, cell-based
# MDA-MB-453 = experiment: Antiproliferative activity against human MDA-MB-453 cells assessed as reduction in cell viability incubated for 120 hrs by Cell-titer Glo luminescent assay; format: functional, cell-based
# LoVo [14] = experiment: Inhibition of DNA damage repair in human LoVo cells assessed as decrease in MRE11 expression level incubated for 24 hrs by Western blot analysis; format: functional, cell-based; conditions: dose 0.3-1 µM
# CWR22R [15] = experiment: Antitumor activity against human 22Rv1 cells xenografted in male Balb/c nude mouse assessed as tumor growth inhibition at 10 to 60 mg/kg QD, po measured every 3 days for 18 days; format: functional, organism-based; conditions: dose 10-60 mg/kg, time 18.0 day
# JeKo-1 [16] = experiment: Antitumor activity against human JeKo-1 cells xenografted in female CB17 SCID mouse at 40 mg/kg BID, po administered as 3 days on and 4 days off schedule for 24 days; format: functional, organism-based; conditions: time 24.0 day
structure (smiles),measurement,setting,value
Cc1n[nH]c(C)c1-c1cc(N2CC3CCC(C2)O3)nc2c(-c3ccccc3)cnn12,pIC50,CWR22R [1],6.06
Cc1nn(-c2cccnc2)c(C)c1-c1cc(N2C[C@@H]3C[C@H]2CO3)nc2c(-c3ccn[nH]3)cnn12,pIC50,CWR22R [1],5.39
Cc1n[nH]c(C)c1-c1cc(N2CC3CCC(C2)O3)n2ncc(-c3cn[nH]c3)c2n1,pIC50,CWR22R [1],5.76
Cc1n[nH]c(C)c1-c1cc(N2CC3CCC(C2)O3)n2ncc(-c3ccccc3)c2n1,pIC50,[2],< 6.30
same,pIC50,CWR22R [1],< 5.00
Cc1nn(C2CCNCC2)c(C)c1-c1cc(N2CC3CCC(C2)O3)nc2c(-c3ccn[nH]3)cnn12,pIC50,CWR22R [1],5.36
Cc1n[nH]c(C)c1-c1cc(N2CC3CCC(C2)O3)nc2c(-c3ccn[nH]3)cnn12,pIC50,CWR22R [1],6.21
Cc1n[nH]c(C)c1-c1cc(N2CC3CCC(C2)O3)n2ncc(-c3ccnn3C)c2n1,pIC50,CWR22R [1],5.17
Cc1n[nH]c(C)c1-c1nc(N2CCOC[C@H]2C)c2nc(-c3cccc4[nH]ccc34)ccc2n1,pIC50,LoVo [3],6.61
Cc1cncc(-n2nc(C)c(-c3cc(N4CC5CCC(C4)O5)nc4c(-c5ccn[nH]5)cnn34)c2C)c1,pIC50,[2],8.00
same,pIC50,CWR22R [1],6.63
Cc1n[nH]c(C)c1-c1cc(N2CC3CCC(C2)O3)n2ncc(-c3cnn(C)c3C)c2n1,pIC50,[2],< 6.30
same,pIC50,CWR22R [1],< 5.00
Cc1nn(-c2cccnc2)c(C)c1-c1cc(N2CC3CCC(C2)O3)nc2c(-c3ccn[nH]3)cnn12 [listing 1 of 2 here],Activity,U2OS,Active
same,Activity,T-24,Active
same,Activity,NCI-H69,Active
same,Activity,JeKo-1 [4],Active
same,inhibition,[5],> 80%
same,inhibition,LoVo [6],Dose-dependent-effect
same,Activity,LoVo [7],Dose-dependent-effect
same,inhibition,[8],> 80%
same,inhibition,LoVo [9],Dose-dependent-effect
same,Activity,MCF7,Active
same,Activity,HepG2,Active
same,Activity,Huh-7,Active
same,inhibition,[10],Active
same,Activity,OVCAR-8,Active
same,inhibition,Homo sapiens,> 80%
same,Activity,SK-OV-3,Active
same,Activity,HCT-116,Active
same,Activity,MDA-MB-436,Active
same,Activity,KATO III,Active
same,Activity,A549,Active
same,Activity,MDA-MB-231,Active
same,Activity,CWR22R [11],Active
same,inhibition,LoVo [12],Active
same,Activity,NCI-H1703,Active
same,inhibition,[13],> 80%
same,Activity,A2780,Active
same,Activity,LNCaP,Active
same,Activity,MDA-MB-453,Active
same,inhibition,LoVo [14],Dose-dependent-effect
same,TGI,CWR22R [15],Active
same,Activity,JeKo-1 [16],Active
CCOc1cncc(-n2nc(C)c(-c3cc(N4CC5CCC(C4)O5)nc4c(-c5ccn[nH]5)cnn34)c2C)c1,pIC50,CWR22R [1],6.29
Cc1n[nH]c(C)c1-c1cc(N2CC3CCC(C2)O3)nc2c(-c3ccnn3C)cnn12,pIC50,[2],< 6.30
same,pIC50,CWR22R [1],5.19
Cc1nn(-c2cncc(C#N)c2)c(C)c1-c1cc(N2CC3CCC(C2)O3)nc2c(-c3ccn[nH]3)cnn12,pIC50,CWR22R [1],5.85
Cc1nn(-c2cncc(F)c2)c(C)c1-c1cc(N2CC3CCC(C2)O3)nc2c(-c3ccn[nH]3)cnn12,pIC50,CWR22R [1],5.88
Cc1nn(-c2cncc(C(F)(F)F)c2)c(C)c1-c1cc(N2CC3CCC(C2)O3)nc2c(-c3ccn[nH]3)cnn12,pIC50,CWR22R [1],5.55
Cc1n[nH]c(C)c1-c1cc(N2CC3CCC(C2)O3)n2ncc(-c3cnn(C)c3)c2n1,pIC50,CWR22R [1],6.03
Cc1nn(C2CCCNC2)c(C)c1-c1cc(N2CC3CCC(C2)O3)nc2c(-c3ccn[nH]3)cnn12 (centres undefined),pIC50,CWR22R [1],5.34
Cc1nn(-c2cncc(C(F)F)c2)c(C)c1-c1cc(N2CC3CCC(C2)O3)nc2c(-c3ccn[nH]3)cnn12,pIC50,CWR22R [1],6.01
Cc1nn(-c2ccncc2)c(C)c1-c1cc(N2CC3CCC(C2)O3)nc2c(-c3ccn[nH]3)cnn12,pIC50,CWR22R [1],5.75
Cc1nn(-c2cncnc2)c(C)c1-c1cc(N2CC3CCC(C2)O3)nc2c(-c3ccn[nH]3)cnn12,pIC50,CWR22R [1],5.85
Cc1n[nH]c(C)c1-c1cc(C23CCC(CNC2)O3)nc2c(-c3cccs3)cnn12 (centres undefined),pIC50,CWR22R [1],6.01
COc1cncc(-n2nc(C)c(-c3cc(N4CC5CCC(C4)O5)nc4c(-c5ccn[nH]5)cnn34)c2C)c1,pIC50,CWR22R [1],6.43
Cc1nn(-c2cccnc2)c(C)c1-c1cc(N2C[C@H]3C[C@@H]2CO3)nc2c(-c3ccn[nH]3)cnn12,pIC50,CWR22R [1],< 5.00
Cc1nn(-c2cncc(Cl)c2)c(C)c1-c1cc(N2CC3CCC(C2)O3)nc2c(-c3ccn[nH]3)cnn12,pIC50,CWR22R [1],6.17
Cc1nn(-c2cccnc2)c(C)c1-c1cc(N2C3CCC2COC3)nc2c(-c3ccn[nH]3)cnn12,pIC50,CWR22R [1],6.48
Cc1nn(-c2cccnc2)c(C)c1-c1cc(N2CC3CCC(C2)O3)nc2c(-c3ccn[nH]3)cnn12 [listing 2 of 2 here],pIC50,CWR22R [1],6.67
Cc1nn(-c2ccc(N)nc2)c(C)c1-c1cc(N2CC3CCC(C2)O3)nc2c(-c3ccn[nH]3)cnn12,pIC50,CWR22R [1],6.70
Cc1cc(-c2cnn3c(-c4c(C)nn(-c5cccnc5)c4C)cc(N4CC5CCC(C4)O5)nc23)[nH]n1,pIC50,CWR22R [1],6.82
Cc1nn(-c2cncc(Br)c2)c(C)c1-c1cc(N2CC3CCC(C2)O3)nc2c(-c3ccn[nH]3)cnn12,pIC50,CWR22R [1],6.36
